Results published in PubChem BioAssay (NCI).
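Grown in 96-well plates, cells were treated for 48 hours with each compound at five concentrations. Insufficient inhibition: endpoint recorded as highest concentration tested. Abbreviation: GI50, concentration required for 50% inhibition of growth. At the TGI there is no net growth.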

Legend:
Assay in all cases: NCI tumour cell line growth inhibition, 48 h
[1] = test system: MDA-MB-231 breast
[2] = test system: UACC-257 melanoma
[3] = test system: NCI-H23 lung
[4] = test system: HCC-2998 colon
[5] = test system: OVCAR-3 ovarian
[6] = test system: CAKI-1 renal
[7] = test system: SK-MEL-2 melanoma
[8] = test system: 786-0 renal
[9] = test system: LOX IMVI melanoma
[10] = test system: IGROV1 ovarian
[11] = test system: SF-268 CNS
[12] = test system: MDA-MB-435
[13] = test system: SK-OV-3 ovarian
[14] = test system: SK-MEL-5 melanoma
[15] = test system: SNB-75 CNS
[16] = test system: SW-620 colon
[17] = test system: NCI-H522 lung
[18] = test system: SNB-19 CNS
[19] = test system: SN12C renal
[20] = test system: HS 578T breast
[21] = test system: SF-295 CNS
[22] = test system: HL-60(TB) leukemia
[23] = test system: T-47D breast
[24] = test system: K-562 leukemia
[25] = test system: UO-31 renal
[26] = test system: HOP-92 NSCLC
[27] = test system: CCRF-CEM leukemia
[28] = test system: HCT-116 colon
[29] = test system: PC-3 prostate
[30] = test system: TK-10 renal
[31] = test system: MOLT-4 leukemia
[32] = test system: U251 CNS
[33] = test system: MALME-3M melanoma
[34] = test system: NCI-H460 lung
[35] = test system: BT-549 breast
[36] = test system: RXF 393 renal
[37] = test system: UACC-62 melanoma
[38] = test system: OVCAR-8 ovarian
[39] = test system: KM12 colon
[40] = test system: NCI/ADR-RES ovarian
[41] = test system: DU-145 prostate
[42] = test system: HCT-15 colon
[43] = test system: A549 NSCLC
[44] = test system: HOP-62 NSCLC
[45] = test system: NCI-H226 lung
[46] = test system: HT29 colon
[47] = test system: ACHN renal
[48] = test system: SF-539 CNS
[49] = test system: RPMI-8226 leukemia
[50] = test system: OVCAR-5 ovarian
[51] = test system: SK-MEL-28 melanoma
[52] = test system: COLO 205 colon
[53] = test system: SR leukemia
[54] = test system: OVCAR-4 ovarian

## CCOc1ccc(-c2nonc2NC(=O)c2cccc(C)c2)cc1OCC
[1]
  GI50: 19.5 µM
  TGI: 62.5 µM
[2]
  GI50: > 100 µM
  TGI: > 100 µM
[3]
  GI50: 35.8 µM
  TGI: > 100 µM
[4]
  GI50: > 100 µM
  TGI: > 100 µM
[5]
  GI50: > 100 µM
  TGI: > 100 µM
[6]
  GI50: 74 µM
  TGI: > 100 µM
[7]
  GI50: > 100 µM
  TGI: > 100 µM
[8]
  GI50: 49.7 µM
  TGI: > 100 µM
[9]
  GI50: > 100 µM
  TGI: > 100 µM
[10]
  GI50: 67 µM
  TGI: > 100 µM
[11]
  GI50: 90.5 µM
  TGI: > 100 µM
[12]
  GI50: > 100 µM
  TGI: > 100 µM
[13]
  GI50: > 100 µM
  TGI: > 100 µM
[14]
  GI50: > 100 µM
  TGI: > 100 µM
[15]
  GI50: 14.5 µM
  TGI: 52.3 µM
[16]
  GI50: > 100 µM
  TGI: > 100 µM
[17]
  GI50: > 100 µM
  TGI: > 100 µM
[18]
  GI50: 34.9 µM
  TGI: > 100 µM
[19]
  GI50: > 100 µM
  TGI: > 100 µM
[20]
  GI50: > 100 µM
  TGI: > 100 µM
[21]
  GI50: 30.4 µM
  TGI: > 100 µM
[22]
  GI50: > 100 µM
  TGI: > 100 µM
[23]
  GI50: > 100 µM
  TGI: > 100 µM
[24]
  GI50: > 100 µM
  TGI: > 100 µM
[25]
  GI50: > 100 µM
  TGI: > 100 µM
[26]
  GI50: 21.1 µM
  TGI: 59.1 µM
[27]
  GI50: > 100 µM
  TGI: > 100 µM
[28]
  GI50: 35.7 µM
  TGI: > 100 µM
[29]
  GI50: > 100 µM
  TGI: > 100 µM
[30]
  GI50: 22.7 µM
  TGI: 46.8 µM
[31]
  GI50: > 100 µM
  TGI: > 100 µM
[32]
  GI50: 30.5 µM
  TGI: > 100 µM
[33]
  GI50: > 100 µM
  TGI: > 100 µM
[34]
  GI50: > 100 µM
  TGI: > 100 µM
[35]
  GI50: > 100 µM
  TGI: > 100 µM
[36]
  GI50: > 100 µM
  TGI: > 100 µM
[37]
  GI50: > 100 µM
  TGI: > 100 µM
[38]
  GI50: > 100 µM
  TGI: > 100 µM
[39]
  GI50: > 100 µM
  TGI: > 100 µM
[40]
  GI50: > 100 µM
  TGI: > 100 µM
[41]
  GI50: > 100 µM
  TGI: > 100 µM
[42]
  GI50: > 100 µM
  TGI: > 100 µM
[43]
  GI50: > 100 µM
  TGI: > 100 µM
[44]
  GI50: > 100 µM
  TGI: > 100 µM
[45]
  GI50: > 100 µM
  TGI: > 100 µM
[46]
  GI50: > 100 µM
  TGI: > 100 µM
[47]
  GI50: > 100 µM
  TGI: > 100 µM
[48]
  GI50: 35.5 µM
  TGI: > 100 µM
[49]
  GI50: > 100 µM
  TGI: > 100 µM
[50]
  GI50: > 100 µM
  TGI: > 100 µM
[51]
  GI50: > 100 µM
  TGI: > 100 µM
[52]
  GI50: > 100 µM
  TGI: > 100 µM
[53]
  GI50: > 100 µM
  TGI: > 100 µM
[54]
  GI50: > 100 µM
  TGI: > 100 µM
